Test results published in PMC4843953, “Eukaryotic elongation factor 2 kinase regulates the synthesis of microtubule‐related proteins in neurons” (Journal of Neurochemistry, 2015).

Tests used:
Format in all cases: cell-based, mice
eEF2 phosphorylation = experiment: p-eEF2 levels in primary cortical neurons (immunoblot)
From the text: Primary neuronal cortical cultures were isolated from P0 or P1 C57BL/6J mice, or eEF2K‐WT or KO mice of either sex as previously described (Wong et al. 2005; Kenney et al. 2015). eEF2K mice were generated by Taconic Biosciences, Cranbury, NJ, USA; all mice were bred from colonies maintained at the Southampton General Hospital. All procedures involving mice were done in accordance with United Kingdom Animals (Scientific Procedures) Act 1986 and approved by the University of Southampton.
Figure 1 Combining pharmacological and genetic strategies with stable isotope labeling of amino acids in cell culture (SILAC)/bio‐orthogonal non‐canonical amino acid tagging (BONCAT) labeling to identify proteins whose synthesis is regulated by eEF2K. (a) Top, the effect of bicuculline administration on p‐eEF2 levels. […] Bottom, examination of the effect of bicuculline on p‐eEF2 levels in neurons from eEF2K‐WT or KO mice. Blots are representative of three to four independent experimental replicates. (b) Experimental designs for combined SILAC/BONCAT labeling to identify proteins whose synthesis are affected by eEF2K inhibition. […] Protein localization was determined using DAVID (Huang et al. 2009), or where DAVID lacked annotation, NCBI.
(§1) Immunoblot data were quantified using LICOR software (version 3.0, Lincoln, NE, USA). Data were analyzed using two‐way ANOVAs. […]

[1] = tested on: mRNA levels (Calm, Nsf, Ppp1 cc, Kif5a, Map2, Map1b, Arc); experiment: qRT-PCR of total mRNA levels in primary cortical neurons; conditions: bicuculline 50 μM, 60 min; p < 0.001
Protocol: Neurons were treated with bicuculline (50 μM) or vehicle dimethylsulfoxide for 60 min prior to lysis. JAN‐452 or JAN‐384 was administered 30 min prior to bicuculline/vehicle. RNA was purified from cultures using the GeneJET RNA purification kit (K0731; Thermo Fisher, Waltham, MA, USA) and QIAshredder spin columns (79656; Qiagen, Valencia, CA, USA). One μg of RNA was reverse transcribed using the ImProm‐II reverse transcription system (Promega, Madison, WI, USA). qPCR was performed with 1 μL of cDNA using the GoTaq qPCR master mix (A6001; Promega) on a StepOne real‐time PCR system (Life Technologies, Grand Island, NY, USA). PCR conditions were as follows: 95°C for 2 min followed by 40 cycles of 95°C for 15 s and 60°C for 45 s. Median Ct values from samples run in triplicate were used for analysis using the ΔΔCt method with Gapdh as the control. Prior to use in experiments, all primer pairs were determined to be efficient (100 ± 10%) and yield only one appropriately sized product based on melt‐curve analysis and agarose gel electrophoresis. Primers were as follows: Calm: 5′‐[…]‐3′ and 5′‐[…]‐3′; Nsf: 5′‐ […]‐3′ and 5′‐[…]‐3′; Ppp1 cc: 5′‐ […]‐3′ and 5′‐[…]‐3′; Kif5a: 5′‐ […]‐3′ and 5′‐[…]‐3′; Map2: 5′‐ […]‐3′ and 5′‐[…]‐3′; Map1b: 5′‐ CGGACAGTGCTTTGAGAAC‐3′ and 5‐GTGAGGCTGGCTTTGTTG‐3′; Gapdh: 5′‐[…]‐3′ and 5′‐[…]‐3′; Arc: 5′‐[…]‐3′ and 5′‐[…]‐3′. […]

newly synthesized NSF = experiment: Newly synthesized protein, AHA labeling, streptavidin isolation and western blot; conditions: AHA labeling 1 h; 2 × 2 ANOVA
Protocol: (§2) Neurons were starved of Met for 30 min in Met‐free neurobasal medium and then labeled for 1 h in the presence of 2 mM AHA. After labeling, neurons were washed three times in ice cold phosphate‐buffered saline (PBS) and then lysed [50 mM Tris‐HCl, 50 mM β‐glycerophosphate, 1 mM EGTA, 1 mM EDTA, 1% Triton‐X, 2 × protease inhibitors (Roche Molecular Biochemicals, Indianapolis, IN, USA)] on ice. The lysate was centrifuged at 14 000 g for 10 min at 4°C and the supernatant was used for click‐chemistry using a biotin‐alkyne (B10185; Invitrogen, Carlsbad, CA, USA) and the protein reaction kit (C10276; Invitrogen) so that only newly synthesized proteins are tagged with biotin. Un‐reacted biotin was removed via gel‐filtration (GE; PD MiniTrap G‐25) using PBS‐T (0.01% Tween) as flow‐through. […]
as §1
(§3) Figure 3 Confirmation of two eEF2K targets identified via stable isotope labeling of amino acids in cell culture (SILAC)/bio‐orthogonal non‐canonical amino acid tagging (BONCAT). […] (c) Quantification of western blot data. *p < 0.01 via 2 × 2 (bicuculline × eEF2K inhibitor) ANOVA; n = 8–9.

newly synthesized PPP1CC = experiment: as above; conditions: AHA labeling 1 h; 2 × 2 ANOVA
Protocol: as §2, §1, §3

## CN1CCc2cc3c(cc2[C@H]1[C@@H]1OC(=O)c2c1ccc1c2OCO1)OCO3 [bicuculline]
eEF2 phosphorylation; eEF2K-KO neurons, completely devoid of eEF2 phosphorylation
  eEF2 phosphorylation in neurons from eEF2K-KO mice: did not affect
eEF2 phosphorylation; primary cortical neurons, back to baseline levels after 60 min
  p-eEF2 level after bicuculline administration: rapid increase
[1]
  Arc mRNA: large increase
Newly synthesized NSF
  amount of newly synthesized NSF: no effect
Newly synthesized PPP1CC
  amount of newly synthesized PPP1CC: no effect
